Patent publication US12617870B2, “Methods of reversing ticagrelor activity” (SFJ Pharmaceuticals X, LTD., priority 2018, dated 2026)
Values joined by “and” are separate entries in the source; they are usually repeats but may differ in a detail not shown here. Equal entries are not always repeated.

What was measured:
[1] = tested on: PB2452 binding to biotinylated ticagrelor; test: Selectivity: competition binding with PB2452 to biotinylated ticagrelor; set-up: species or system human
Protocol: The chemical starting point for the development of ticagrelor was adenosine triphosphate (ATP), and ticagrelor retains an adenosine-like core. To confirm the specificity of PB2452 for ticagrelor and ticagrelor active metabolite (TAM), its binding to ATP, ADP, and adenosine was evaluated. […] The selectivity of PB2452 was determined by competition binding with PB2452 to biotinylated ticagrelor.

[2] = PLATO, cited from earlier work; for patients with fatal or life-threatening major bleeding events: patients with ACS, both treatment groups
[3] = tested on: platelet aggregation (ticagrelor antiplatelet activity); assay type: in vivo, human; details: placebo subjects
Protocol: Platelet function was assessed using light transmission aggregometry (LTA), VerifyNow, and vasodilator stimulated phosphoprotein (VASP) assays before and after 48 hours of ticagrelor administration […] Cohorts 7 to 10 received an 18-gram fixed dose of PB2452 via various infusion regimens or placebo. Infusions of PB2452 in these cohorts were initiated 2 hours after the last ticagrelor pretreatment dose to coincide with the peak concentration of ticagrelor. (Gurbel (2009). Subjects in all cohorts were randomized in a 3:1 ratio to receive PB2452 or placebo. The primary efficacy outcome was the effectiveness of PB2452 in reversing the antiplatelet effect of ticagrelor by analyzing platelet aggregation using light transmission aggregometry at multiple time points before and after PB2452 or placebo administration in ticagrelor pretreated subjects. Secondary efficacy outcomes were the effectiveness of ticagrelor reversal assessed using VerifyNow and the vasodilator stimulated phosphoprotein phosphorylation immunoassay (VASP). The sample size of 64 was based on clinical and practical considerations and not on a formal statistical power calculation. The sample size was considered sufficient to adequately assess the safety, efficacy, and pharmacokinetic profiles of PB2452 and the pharmacokinetic and pharmacodynamic profiles of ticagrelor. Reversal of antiplatelet effect was evaluated by comparing the mean percent of baseline platelet aggregation between PB2452 and placebo using Wilcoxon rank-sum test. Multiplicity was adjusted using the Bonferroni method. Correlations between each pair of the platelet function tests were evaluated using Pearson's correlation and Spearman's rank correlation coefficient. Mean data from subjects receiving placebo were pooled across cohorts for all presentations. Categorical variables are summarized by their frequencies and percentages, and continuous variables are presented with the number of subjects with non-missing data, mean, standard deviation, median, minimum, and maximum. Descriptive statistics are presented for each cohort, and pooled placebo and PB2452 data. For pharmacodynamic data, platelet aggregation results were compared between each cohort and pooled placebo data (cohorts 4 to 6 and cohort 7 to 10 were pooled separately). All analyses were performed with SAS software, version 9.4 (SAS Institute).

[4] = Phase 1 healthy volunteer study: pharmacokinetics of total ticagrelor; assay type: in vivo, human
Protocol: Plasma samples for determining total concentration of ticagrelor and its active metabolite, TAM (or ARC-124910XX) will be collected from subjects in Cohorts 4 through 10 before dosing (within 10 minutes prior to the initiation of the study drug infusion [Hour 0], and up to 48 hours following the initiation of study drug infusion. Specific collection times for each cohort are listed in the table below: […]

| inhibition of PB2452 binding to biotinylated ticagrelor [1] | SMILES | further results |
| --- | --- | --- |
| No inhibition | CCCC(=O)Nc1ncnc2c1ncn2[C@@H]1O[C@@H]2COP(=O)(O)O[C@H]2[C@H]1OC(=O)CCC [bucladesine] | – |
| No inhibition | NS(=O)(=O)c1cc2c(cc1Cl)NC(C1CC3C=CC1C3)NS2(=O)=O (centres unmarked) [cyclothiazide] | – |
| No inhibition | CC(=O)NC[C@H]1CN(c2ccc(N3CCOCC3)c(F)c2)C(=O)O1 [linezolid] | – |
| No inhibition | CC[C@H](C)C(=O)O[C@H]1C[C@@H](C)C=C2C=C[C@H](C)[C@H](CC[C@@H]3C[C@@H](O)CC(=O)O3)[C@H]21 [lovastatin] | – |
| No inhibition | COC(=O)C1=C(C#N)NC(C)=C(C(=O)OC(C)C)C1c1cccc([N+](=O)[O-])c1 (centres unmarked) [nilvadipine] | – |

More lines, now with the values behind:

| SMILES | inhibition of PB2452 binding to biotinylated ticagrelor [1] | further results |
| --- | --- | --- |
| Nc1ncnc2c1ncn2[C@@H]1O[C@H](COP(=O)(O)OP(=O)(O)O)[C@@H](O)[C@H]1O [ADP, adenosine diphosphate] | No inhibition | – |
| Nc1ncnc2c1ncn2[C@@H]1O[C@H](COP(=O)(O)OP(=O)(O)OP(=O)(O)O)[C@@H](O)[C@H]1O [ATP, adenosine triphosphate] | No inhibition | – |
| Nc1ncnc2c1ncn2[C@@H]1O[C@H](CO)[C@@H](O)[C@H]1O [adenosine] | No inhibition | – |
| CSCCNc1nc(SCCC(F)(F)F)nc2c1ncn2[C@@H]1O[C@H](COP(=O)(O)OP(=O)(O)C(Cl)(Cl)P(=O)(O)O)[C@@H](O)[C@H]1O [cangrelor] | No inhibition | – |
| O=C1CCc2cc(OCCCCc3nnnn3C3CCCCC3)ccc2N1 [cilostazol] | No inhibition | – |
| COC(=O)[C@H](c1ccccc1Cl)N1CCc2sccc2C1 [clopidogrel] | – | patients with fatal or life-threatening major bleeding events [2]: 5.8% |
| CC1(C)C(C=C(Cl)Cl)C1C(=O)OC(C#N)c1ccc(F)c(Oc2ccccc2)c1 (centres unmarked) [cyfluthrin] | No inhibition | – |
| CNC(=O)c1cnn(-c2nc(N)c3ncn([C@@H]4O[C@H](CO)[C@@H](O)[C@H]4O)c3n2)c1 [regadenoson] | No inhibition | – |
| CCCSc1nc(N[C@@H]2C[C@H]2c2ccc(F)c(F)c2)c2nnn([C@@H]3C[C@H](OCCO)[C@@H](O)[C@H]3O)c2n1 [ticagrelor, (1S,2S,3R,5S)-3-[7-{[(1R,2S)-2-(3,4-difluorophenyl)cyclopropyl]amino}-5-(propylthio)-3H-[1,2,3]triazolo[4,5-d]pyrimidin-3-yl]-5-(2-hydroxyethoxy)cyclopentane-1,2-diol] | – | suppression of platelet aggregation ([3]; after 48 hours of ticagrelor (180 mg loading + 90 mg twice daily)): ~80% and 80-85%; platelet aggregation remained suppressed after ticagrelor was stopped [3]: 24 h; increase of mean ticagrelor concentrations compared with ticagrelor alone ([4]; PB2452 18 gram dose level with 8- to 16-hour infusions): 5.6 fold; increase of mean concentration of circulating ticagrelor ([4]; in the presence of PB2452 (Cohorts 4-6, FIG. 11B)): 2-5.6 fold; time of peak total ticagrelor concentration after an oral dose ([4]; subjects receiving ticagrelor alone): approximately 2 hours; peak total ticagrelor concentration ([4]; subjects receiving ticagrelor alone, oral dose): 900 ng/mL; patients with fatal or life-threatening major bleeding events [2]: 5.8%; patients with fatal or life-threatening bleeding event ([2]; urgent surgery, could not wait three days for ticagrelor to wash out): approximately 50%; patients with major bleeding related to procedures like CABG [2]: approximately 9%; patients with spontaneous major bleeding events not related to any medical procedure [2]: approximately 3% |
